Laboratory results reported in patent US8450525B2, “Histone deacetylase inhibitors” (Orchid Chemicals & Pharmaceuticals Limited, priority 2007, dated 2013).

What was measured:
Acetylated histone (H3) = test: Histone (H3) acetylation, sandwich ELISA in HCT116 cell lysate; format: cell-based; details: HCT116 cells, 4 hours, vs control
Method: (§1) The incubation lasted 18 hours for p21 induction. After incubation, cell lysates were prepared in cell lysis buffer by sonication on ice. The lysates were collected after centrifugation and subjected to ELISA test procedure. 100 μL of each diluted cell lysate in dilution buffer (1:1) was added to appropriate capture antibody coated microwells and incubated overnight at 4° C. After washing, 100 μL of detection antibody was added for 1 hour at 37° C. After second washing, 100 μL of HRP-linked secondary antibody was added for 30 minutes at 37° C. Finally, after appropriate washing, 100 μL of TMB substrate was added for 10 minutes at 37° C. followed by 100 μL, of stop solution. The absorbance of individual wells was read using a spectrophotometer at 450 nm (A450).

[1] = molecular target: T1, HDAC (Mouse Liver Extract); test: HDAC inhibition assay using Boc-Lys(Ac)-AMC substrate, mouse liver enzyme; format: biochemical;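 for IC50: IC50 for inhibition of HDAC activity in mouse liver extract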
T1 construct: Mouse liver enzyme (10 mg/ml) was diluted 1:6 with HDAC buffer

p21 = p21 induction, sandwich ELISA in HCT116 cell lysate; format: cell-based; details: HCT116 cells, 18 hours, vs control
Method: as §1

acetylated Tubulin = test: Tubulin acetylation, sandwich ELISA in HCT116 cell lysate; format: cell-based; details: HCT116 cells, 4 hours, vs control
Method: as §1

recombinant HDAC1 enzyme = molecular target: T2, recombinant HDAC1 enzyme (Homo sapiens, UniProt Q13547); test: HDAC1 inhibitory activity, recombinant enzyme; format: biochemical; details: recombinant HDAC1 (BIOMOL); read-out: HDAC1 inhibition (IC50)
T2 construct: purchased BIOMOL, USA
T2 sequence (Q13547 whole entry): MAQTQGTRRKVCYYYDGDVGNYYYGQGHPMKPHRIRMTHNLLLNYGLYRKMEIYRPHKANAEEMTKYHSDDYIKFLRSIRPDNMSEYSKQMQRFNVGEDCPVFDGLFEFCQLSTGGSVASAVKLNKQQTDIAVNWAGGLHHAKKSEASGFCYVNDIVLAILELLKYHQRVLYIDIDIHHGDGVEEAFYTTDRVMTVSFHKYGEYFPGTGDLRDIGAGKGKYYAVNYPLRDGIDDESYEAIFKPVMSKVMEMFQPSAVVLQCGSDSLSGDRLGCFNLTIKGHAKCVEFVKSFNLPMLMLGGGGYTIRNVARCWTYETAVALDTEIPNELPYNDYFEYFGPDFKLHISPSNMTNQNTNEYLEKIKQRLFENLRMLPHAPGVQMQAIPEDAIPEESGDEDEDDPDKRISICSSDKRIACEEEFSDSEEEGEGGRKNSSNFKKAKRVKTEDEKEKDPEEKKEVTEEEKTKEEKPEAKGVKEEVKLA
Method: Assay was done in 96-well black microplate and total volume of the assay was 100 μL. Mouse liver enzyme (10 mg/ml) was diluted 1:6 with HDAC buffer. Enzyme cocktail was made of 10 μL of diluted enzyme and 30 μL of HDAC buffer. 40 μl of enzyme cocktail followed by 10 μL of test compound (1 μM and 10 μM) or buffer (control) was added to each well. The plate was pre-incubated at 37° C. for 5 minutes. The HDAC reaction was started by adding 50 μl of HDAC substrate Boc-Lys (Ac)-AMC (Bachem AG, Switzerland). The plate was incubated at 37° C. for 30 minutes. The reaction was stopped by adding 100 μL of Trypsin stop solution and incubating at 37° C. for 15-30 minutes. Measuring the fluorescence at excitation wavelength of 360 nm and emission wavelength of 460 nm monitored the release of AMC. Buffer alone and substrate alone served as blank. […] (Dennis Wegener et al, Anal. Biochem, 321, 2003, 202-208).
Since the benzamide type compounds are known to have potential for HDAC class 1 specificity, active compounds were tested for HDAC1 inhibitory activity. The assay was carried out, as previously described using recombinant HDAC1 enzyme (BIOMOL, USA) and following manufacturer's instructions.

HCT116 (colon) xenograft = format: in vivo; details: 100 mg/kg p.o. qdx21, HCT116 xenograft, vs vehicle treated control
Method: Experiments were carried out using 6-8 week old female […] SCID (Severe Combined Immune Deficient) mice. The mice were housed in Individually Ventilated Cages (IVC) at constant temperature (22±3° C.) and humidity (50±20%). They had free access to food and water. Tumors were obtained from ATCC, USA and maintained in vivo by subcutaneous (s.c.) passage of tumor fragments (app×30 mg) in healthy mice according to standard reported procedures. All the animal protocols were approved by the Institutional Animal Ethics Committee, ORLL, Chennai. Each experimental group included 6-8 mice bearing s.c. tumors. Tumors were implanted into the axillary region by puncturing using a Trocar, and tumor growth was monitored by measurement of tumor diameters with a Vernier caliper. Tumor Volume (TV) was calculated according to the following formula: TV (mm^3)=L×W^2×0.5,
Where L and W are the longest diameter and shortest diameter of the tumor, respectively. The compound treatment started when tumors were palpable (150-200 mm^3).
Test compound was administered by oral gavage in a volume of 5-10 ml/kg. […] Tumor size was measured twice every week and body weight was recorded daily prior to dosing.
Test compound (T) efficacy was assessed by calculating several parameters based on tumor volume (TV) with respect to untreated control (C). […]
Toxic effects of drug treatment were assessed by Body Weight Loss %. […]

HCT 116 (colon) cells = test: Anti-cancer screen, growth inhibition (MTT); format: cell-based; details: Homo sapiens, HCT-116 cells, 48 hours of incubation
Outline: (§2)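 MTT added for 3 h at 37° C, formazan dissolved in DMSO and A570 read. A T0 plate was measured at compound addition.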

NCI-H460 (lung) cells = test: Anti-cancer screen, growth inhibition (MTT); format: cell-based; details: Homo sapiens, 48 hours of incubation
Outline: as §2

U251 (glioma) cells = test: Anti-cancer screen, growth inhibition (MTT); format: cell-based; details: Homo sapiens, U-251 cells, 48 hours of incubation
Outline: as §2

Nc1ccccc1NC(=O)c1ccc(/C=C(/C(=O)NC2CC2)c2ccc(F)cc2)cc1 [Example 105, (E)-N-(2-Aminophenyl)-4-(3-(cyclopropylamino)-2-(4-fluorophenyl)-3-oxoprop-1-en-1-yl)benzamide]
H3 Acetylation (Fold Increase) (Acetylated histone (H3); 1 μM): 1.24
H3 Acetylation (Fold Increase) (Acetylated histone (H3); 10 μM): 6.67
IC50 [1]: 15800 nM
HDAC Inhibition % (1 μM) ([1]; 1 μM): 46.0%
HDAC Inhibition % (10 μM) ([1]; 10 μM): 71.3%
P21 Induction (Fold Increase) (p21; 1 μM): 1.05
P21 Induction (Fold Increase) (p21; 10 μM): 2.50
μ-Tubulin Acetylation (Fold Increase) (acetylated Tubulin; 1 μM): 2.22
μ-Tubulin Acetylation (Fold Increase) (acetylated Tubulin; 10 μM): 8.98
IC50 (recombinant HDAC1 enzyme): 77 nM
maximum Tumor Volume Inhibition (TVI) (HCT116 (colon) xenograft): 39.4%
GI50 (HCT 116 (colon) cells): 1000 nM
GI50 (NCI-H460 (lung) cells): 900 nM
GI50 (U251 (glioma) cells): 4800 nM
